# Measurements from patent US20220283500A1, “CHEMICALLY AMPLIFIED POSITIVE-TYPE PHOTOSENSITIVE RESIN COMPOSITION, PHOTOSENSITIVE DRY FILM, PRODUCTION METHOD FOR PHOTOSENSITIVE DRY FILM, PRODUCTION METHOD FOR PATTERNED RESIST FILM, COMPOUND, PHOTO-ACID GENERATOR, AND PRODUCTION METHOD FOR N-ORGANOSULFONYLOXY COMPOUND” (TOKYO OHKA KOGYO CO., LTD., priority 2019, published 2022).
# Experiment: Evaluation of solubility of acid generator in PGMEA
# Conditions: maximal concentration dissolved in propylene glycol monomethyl ether acetate (PGMEA)
row,Structure (SMILES),Solvent solubility of acid generator
1,CCCCC(Oc1cc2c3c(cccc3c1)C(=O)N(OS(=O)(=O)C(F)(F)C(=O)OC1C3CC4OS(=O)(=O)C1C4C3)C2=O)C(=O)O (stereo not drawn) [PAG-16],10% by mass
2,CC(C)c1cc2c3c(c(C(C)C)ccc3c1)C(=O)N(OS(=O)(=O)C(F)(F)C(=O)OC1C3CC4OS(=O)(=O)C1C4C3)C2=O (stereo not drawn) [PAG-32],10% by mass
3,CC(C)c1cc2c3c(c(C(C)C)ccc3c1)C(=O)N(OS(=O)(=O)C(F)(F)C(=O)OCCC13CC4CC(CC(C4)C1)C3)C2=O [PAG-31],> 20% by mass
4,CCCCc1ccc2c3c(cccc13)C(=O)N(OS(=O)(=O)C(F)(F)C(=O)OC)C2=O [PAG-1],> 20% by mass
5,CCCCC(CC)COC(=O)CSc1ccc2c3c(cccc13)C(=O)N(OS(=O)(=O)C(F)(F)C(=O)OC1C3CC4OS(=O)(=O)C1C4C3)C2=O (stereo not drawn) [PAG-12],> 20% by mass
6,CCCCc1ccc2c3c(cccc13)C(=O)N(OS(=O)(=O)C(F)(F)C(=O)OCCC1CCCCC1)C2=O [PAG-2],> 20% by mass
7,CCCCC(Oc1cc2c3c(cccc3c1)C(=O)N(OS(=O)(=O)C(F)(F)C(=O)OCCC13CC4CC(CC(C4)C1)C3)C2=O)C(=O)O (stereo not drawn) [PAG-15],10% by mass
8,"O=C1c2cccc3cccc(c23)C(=O)N1OS(=O)(=O)C(F)(F)F [PAG-5, reference compound]",< 1% by mass
9,COC(=O)C(F)(F)S(=O)(=O)ON1C(=O)c2cc(C(C)C)cc3ccc(C(C)C)c(c23)C1=O [PAG-29],10% by mass
10,CCCCC(CC)COC(=O)CSc1ccc2c3c(cccc13)C(=O)N(OS(=O)(=O)C(F)(F)C(=O)OCCC13CC4CC(CC(C4)C1)C3)C2=O (stereo not drawn) [PAG-11],> 20% by mass
11,O=C1c2cccc3cccc(c23)C(=O)N1OS(=O)(=O)C(F)(F)C(=O)OC1C2CC3OS(=O)(=O)C1C3C2 (stereo not drawn) [PAG-8],< 1% by mass
12,CCCCC(Oc1cc2c3c(cccc3c1)C(=O)N(OS(=O)(=O)C(F)(F)C(=O)OCCC13CC4CC(CC(C4)C1)C3)C2=O)C(=O)OC(C)(C)C (stereo not drawn) [PAG-19],15% by mass
13,"CCCCc1ccc2c3c(cccc13)C(=O)N(OS(=O)(=O)C(F)(F)F)C2=O [PAG-6, reference compound]",> 20% by mass
14,COC(=O)C(F)(F)S(=O)(=O)ON1C(=O)c2cccc3cccc(c23)C1=O [PAG-7],5% by mass

# Results, then the molecule that gave them:
row,Solvent solubility of acid generator,Structure (SMILES)
1,15% by mass,CCCCC(Oc1cc2c3c(cccc3c1)C(=O)N(OS(=O)(=O)C(F)(F)C(=O)OC)C2=O)C(=O)OC(C)(C)C (stereo not drawn) [PAG-17]
2,> 20% by mass,CCCCC(CC)COC(=O)CSc1ccc2c3c(cccc13)C(=O)N(OS(=O)(=O)C(F)(F)C(=O)OCCC1CCCCC1)C2=O (stereo not drawn) [PAG-10]
3,10% by mass,CCCCC(Oc1cc2c3c(cccc3c1)C(=O)N(OS(=O)(=O)C(F)(F)C(=O)OC)C2=O)C(=O)O (stereo not drawn) [PAG-13]
4,10% by mass,CCCCC(Oc1cc2c3c(cccc3c1)C(=O)N(OS(=O)(=O)C(F)(F)C(=O)OCCC1CCCCC1)C2=O)C(=O)O (stereo not drawn) [PAG-14]
5,15% by mass,CCCCC(Oc1cc2c3c(cccc3c1)C(=O)N(OS(=O)(=O)C(F)(F)C(=O)OCCC1CCCCC1)C2=O)C(=O)OC(C)(C)C (stereo not drawn) [PAG-18]
6,> 20% by mass,CC(C)c1cc2c3c(c(C(C)C)ccc3c1)C(=O)N(OS(=O)(=O)C(F)(F)C(=O)OCCC1CCCCC1)C2=O [PAG-30]
7,> 20% by mass,CCCCC(CC)COC(=O)CSc1ccc2c3c(cccc13)C(=O)N(OS(=O)(=O)C(F)(F)C(=O)OC)C2=O (stereo not drawn) [PAG-9]
